From patent US20040034222A1, “2,4 diamino-1,3,5-triazines, processes for their preparation and their use as herbicides and plant growth regulators” (priority 1999, published 2004)

Legend:
Format in all cases: in vivo
[1] = system: harmful plants which are typical for rice crops, for example Cyperus iria and Echinochloa crus-galli; assay: Action on harmful plants in rice (paddy rice conditions); settings: applied into the dammed water, different dosages, scored about three weeks after application
Source text: Transplanted and sown rice and also typical rice weeds (gramineous and broad-leaved) are cultivated in closed plastic pots in a greenhouse to the three-leaf stage (Echinochloa crus-galli 1.5-leaf) under paddy rice conditions (dammed height of water: 2-3 cm). This is followed by treatment with the novel compounds. For this purpose, the formulated active compounds are suspended, dissolved or emulsified in water and applied by pouring them into the dammed water around the test plants in different dosages. After this treatment, the test plants are set up in a greenhouse under optimum growth conditions and are maintained in this way throughout the test period.
About three weeks after application, evaluation is made by visual scoring of the damage to the plants by comparison with untreated controls.

[2] = system: Stellaria media, Lolium multiflorum, Amaranthus retroflexus, Sinapis arvensis, Avena fatua and Setaria viridis; assay: Pre-emergence effect on weeds (greenhouse pot test); settings: application rate of 1 kg and less of active substance per hectare; scored after 3 to 4 weeks by comparison with untreated controls
Source text: Seeds or rhizome pieces of monocotyledonous and dicotyledonous weed plants are placed in sandy loam soil in plastic pots and covered with soil. The compounds according to the invention which are formulated in the form of wettable powders or emulsion concentrates were then applied to the surface of the soil cover in the form of aqueous suspensions or emulsions at an application rate of 600 to 800 l of water/ha (converted), in various dosages.
After the treatment, the pots are placed in a greenhouse and kept under good growth conditions for the weeds. After the test plants had emerged, the damage to the plants or the negative effect on the emergence was scored visually after a test period of 3 to 4 weeks by comparison with untreated controls. As shown by the test results, compounds according to the invention have good herbicidal pre-emergence activity against a broad spectrum of weed grasses and broad-leafed weeds.

[3] = system: Stellaria media, Lolium multiflorum, Amaranthus retroflexus, Sinapis arvensis, Avena fatua und Setaria viridis; assay: Post-emergence effect on weeds (greenhouse pot test); settings: application rate of 1 kg and less of active substance per hectare; treated at three-leaf stage; scored after about 3 to 4 weeks by comparison with untreated controls
Method: Seeds or rhizome pieces of monocotyledonous and dicotyledonous weeds were placed in sandy loam soil in plastic pots, covered with soil and grown in a greenhouse under good growth conditions. Three weeks after sowing, the test plants were treated at the three-leaf stage. The compounds according to the invention which were formulated as wettable powders or emulsion concentrates were sprayed, at various dosages, onto the, green parts of the plants at an application rate of 600 to 800 l of water/ha (converted). After the test plants had remained in the greenhouse for about 3 to 4 weeks under optimum growth conditions, the effect of the preparations was scored visually by comparison with untreated controls. The agents according to the invention also have good herbicidal activity post-emergence against a broad spectrum of economically important weed grasses and broad-leafed weeds.

Cc1cccc(OCC(Nc2nc(N)nc(C(F)(F)C(F)F)n2)C2CCCC2)c1 (racemic) [Example 110, 2-Amino-4-(1,1,2,2-tetrafluoroethyl)6-{N-[1-cyclopentyl-2-(3-methylphenoxy)ethyl]amino}-1,3,5-triazine]
very good herbicidal activity: herbicidal activity against harmful plants typical for rice crops (visual scoring of damage) [1] | herbicidal activity pre-emergence (damage to the plants or negative effect on emergence, scored visually) [2] | herbicidal activity post-emergence (scored visually) [3]

CC(C)(F)c1nc(N)nc(NC(COc2ccccc2)C2CCC2)n1 (racemic) [Example 178, 2-Amino4-(1-fluoro-1-methylethyl)-6-[N-(1-cyclobutyl-2-phenoxyethyl)-amino]-1,3,5-triazine]
very good herbicidal activity: herbicidal activity against harmful plants typical for rice crops (visual scoring of damage) [1] | herbicidal activity pre-emergence (damage to the plants or negative effect on emergence, scored visually) [2] | herbicidal activity post-emergence (scored visually) [3]
